Reference: PMC9306587 (European Journal of Immunology, 2022)

Columns and labels:
HLA-E*01:03 [1] = target: T1, HLA-E*01:03 (Homo sapiens, UniProt P13747); experiment: pHLA Thermofluor (thermal shift) assay; format: binding; conditions: Table S2; SYPRO Orange thermal shift, pHLA 0.25 mg/mL in PBS, 10 to 95°C at 1°C/min, triplicate; two independent experiments
T1 construct: made in house
Method: Thermal shift assay experiments were performed using a RT‐PCR instrument (Quantstudio 6, Applied Biosystems). SYPRO Orange protein gel stain (5000× stock solution) was diluted in PBS to yield a 75× working solution. In a 96‐well plate, 23 μL of pHLA at 0.25 mg/mL was added to 2 μL of SYPRO Orange working solution to a final volume of 25 μL, with each pHLA prepared in triplicate. Mixtures were heated from 10 to 95°C with a temperature increment of 1°C/min. Fluorescence was detected using the FAM filter set, with excitation and emission wavelength at 495 and 518 nm, respectively. Data analysis was performed using Protein Thermal Shift Software version 1.4 (Thermofisher Scientific) to determine Tm.

HLA-ES147C = target: T2, HLA-ES147C (Homo sapiens, UniProt P13747, S168C); format: binding
T2 construct: made in house

HLA-E*01:03 [2] = target: T1, HLA-E*01:03; experiment: pHLA-E complex stability by SPR (ILT2 binding over time); conditions: for t1/2: Table S2, SPR BIAcore T200, biotinylated pHLA-E monomers on streptavidin CM5 chip, 1 μM soluble ILT2 at regular intervals over 5 h, 25°C
Method: HLA‐E heavy chain (without transmembrane domain and with or without a C‐terminal biotinylation tag, AviTagsequence) and β2m were expressed and refolded with the peptide of interest and subsequently purified, as previously described. To biotinylate complexes prior to size exclusion chromatography, complexes were AviTag treated with biotin‐protein ligase (BirA) according to the manufacturer's instructions (Avidity BirA‐500 kit).
The stability of all pHLA‐E complexes was assessed by SPR using a BIAcore T200 instrument. Purified biotinylated pHLA‐E monomers (HLA‐E*01:03 was used throughout) were immobilized onto a streptavidin‐coupled CM5 sensor chip. A total of 1 μM of soluble ILT2 was flowed over the chip at 10 μL/min for 60 s. ILT2 binding to pHLA‐E complexes was measured at regular intervals over 5 h and responses were normalized by subtracting the bulk buffer response of a control flow cell containing no pHLA. Binding t 1/2 was calculated by plotting % activity against time using the Biacore T200 evaluation software version 3.0 and GraphPad Prism version 8.3.0.

VMAPRTLLL [LA13-11]
Average Tm (HLA-E*01:03 [1]): 47.87 °C
t1/2(hours) HLA-ES147C(H3C) (HLA-ES147C): 16.74 h
t1/2 (HLA-E*01:03 [2]): 2.8 h
t1/2 (HLA-E*01:03 [2]; representative of at least two independent experiments): 2.8 h
t1/2(hours) HLA-E (HLA-E*01:03 [2]; Table S4, SPR with ILT2 over 5 h): 2.8 h
